Results reported in US20230331719A1, “Pyrazolopyridine Compounds and Methods of Inhibiting IRE1 Using Same” (OPTIKIRA, LLC, priority 2020, published 2023).

Key:
XBP1 = assay: Cellular XBP1 splicing assay (NanoLuc luciferase reporter); type: cell-based; conditions: Homo sapiens; ARPE-19 cells stably expressing XBP1-nano-luciferase; thapsigargin 150 nM, 4 hour incubation
Procedure: ARPE-19 cells stably expressing XBP1 (a.a. 1-376) with nano-luciferase gene sequence linked so it is in frame when XBP1 is spliced, were cultured in F12 media, 10 % FBS, 0.044% sodium bicarbonate, 150 µg/ml hygromycin B and seeded for assays at 5,000 cells in 384 well plates in culture media without hygromycin B and incubated at 37° C./5% CO2. After overnight incubation test compounds were added to the cell plate in a 10-point ½ log dilution series in duplicate (final DMSO concentration 0.117 %). After further incubation of 30 minutes thapsigargin was added (final concentration 150 nM) and then another 4 hour incubation. A NanoLuc luciferase assay (Promega) was used according to the manufacturer’s instructions to detect the luciferase and luminescence measured on a luminometer (EnVision, PerkinElmer). IC50 values calculated by fitting a sigmoidal curve to percent inhibition of control of compound concentration.

IRE1α RNase = IRE1α RNase (Homo sapiens (Human), UniProt O75460); assay: Inhibition of RNase activity of IRE1α; type: biochemical; conditions: 0.325 nM enzyme, 100 nM substrate, 20 minutes at room temperature
Procedure: The RNase reactions were performed in 384 well black ProxiPlate-384 Plus plates (PERKIN Elmer) using 50 mM Tris assay buffer with 0.5 mM MgCl2, 10 mM KCl, 0.03 % Tween, 2 mM DTT and 1% DMSO. Test compounds were prepared on the day of assay and dispensed using D300 digital dispenser as a 10-point ½ log dilution series in duplicate, normalized to a final DMSO concentration of […]. Test compounds were pre-incubated for 30 min at room temperature with IRE1α kinase (E31-11G from Signal Chem) in 2.5 µL of assay buffer. Then 2.5 µl of assay buffer containing substrate (5′ Alexa Fluor 647 - rCrArUrGrUrC rCrGrCrArGrCrGrCrArUrG - Iowa Black RQ quencher 3′) (SEQ ID NO:1) added, giving a final concentration of enzyme of 0.325 nM and of substrate of 100 nM. After 20 minutes incubation at room temperature the reactions were stopped by added 5 µL of 5 M urea, incubated at room temperature for 10 minutes and fluorescence measured on a plate reader (EnVision, PerkinElmer). IC50 values calculated by fitting a sigmoidal curve to percent inhibition of control versus compound concentration.

IRE1α kinase = IRE1α kinase (Homo sapiens (Human), UniProt O75460); assay: Inhibition of kinase activity of IRE1α (ADP-Glo); type: biochemical; conditions: 5 nM IRE1α kinase, 100 µM ATP, 4 hours at room temperature
Procedure: The kinase reactions were performed in 384 well white ProxiPlate-384 Plus plates (PERKIN Elmer 6008280) using 25 mM MOPS assay buffer with 1 mM dithiothreitol, 25 mM MgCl2, 12.5 mM β-glycerophosphate, 5 mM EGTA, and 50 µg/mL BSA. Test compounds were prepared on the day of assay and dispensed using D300 digital dispenser as a 10-point ½ log dilution series in duplicate, normalized to a final DMSO concentration of 3%. Test compounds were pre-incubated for 30 min at room temperature with 10 nM IRE1α kinase (E31-11G from Signal Chem) in 2.5 µL of assay buffer and the reaction started by addition of 2.5 µL of ATP in assay buffer, to give a final ATP concentration of 100 µm and 5 nM IRE1α kinase. After 4 hours incubation at room temperature the reactions were stopped and the kinase activity determined using the ADP-Glo™ reagent from Promega, according to the manufacturer’s instructions. Luminescence was measured on a luminometer (EnVision, PerkinElmer) and IC50 values calculated by fitting a sigmoidal curve to percent inhibition of control versus Log10 of compound concentration.

IRE1α RNase, sequence (O75460 468-977): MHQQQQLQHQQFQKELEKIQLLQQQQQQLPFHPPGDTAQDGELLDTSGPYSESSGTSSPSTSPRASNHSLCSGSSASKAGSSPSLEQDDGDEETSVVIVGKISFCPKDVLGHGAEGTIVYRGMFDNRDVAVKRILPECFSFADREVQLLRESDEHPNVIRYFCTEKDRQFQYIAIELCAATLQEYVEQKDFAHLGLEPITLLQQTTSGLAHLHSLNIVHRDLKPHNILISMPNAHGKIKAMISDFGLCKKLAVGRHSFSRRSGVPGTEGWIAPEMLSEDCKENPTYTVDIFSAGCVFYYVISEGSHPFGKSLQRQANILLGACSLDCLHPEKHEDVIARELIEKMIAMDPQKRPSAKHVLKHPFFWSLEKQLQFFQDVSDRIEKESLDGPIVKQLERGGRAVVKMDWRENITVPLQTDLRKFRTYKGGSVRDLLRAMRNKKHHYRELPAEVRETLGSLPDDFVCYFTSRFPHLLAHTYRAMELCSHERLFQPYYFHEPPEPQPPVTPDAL
IRE1α kinase, sequence (O75460 468-977): as above

| IC50 (XBP1) [nM] | IC50 (IRE1α RNase) [nM] | IC50 (IRE1α kinase) [nM] | SMILES |
| --- | --- | --- | --- |
| 4.6 | 3.3 | 1.6 | CC(C)n1nc(-c2cc(F)c(NS(=O)(=O)c3cc(Cl)ccc3Cl)cc2F)c2c(N)ncc([C@H]3CC[C@H](N4CCOCC4)CC3)c21 [Compound A10, N-(4-(4-amino-1-isopropyl-7-((1r,4r)-4-morpholinocyclohexyl)-1H-pyrazolo[4,3-c]pyridin-3-yl)-2,5-difluorophenyl)-2,5-dichlorobenzenesulfonamide] |
| 10.3 | 3.5 | 2.3 | CC(C)n1nc(-c2cc(F)c(NS(=O)(=O)c3cc(Cl)ccc3F)cc2F)c2c(N)ncc([C@H]3CC[C@H](N4CCOCC4)CC3)c21 [Compound A20, N-(4-(4-amino-1-isopropyl-7-((1r,4r)-4-morpholinocyclohexyl)-1H-pyrazolo[4,3-c]pyridin-3-yl)-2,5-difluorophenyl)-5-chloro-2-fluorobenzenesulfonamide] |
| 10.6 | 4.8 | 2.1 | CCOc1ccc(Cl)c(S(=O)(=O)Nc2cc(F)c(-c3nn(C(C)C)c4c3c(N)ncc4[C@H]3CC[C@H](N4CCOCC4)CC3)cc2F)c1 [Compound A17, N-(4-(4-amino-1-isopropyl-7-((1r,4r)-4-morpholinocyclohexyl)-1H-pyrazolo[4,3-c]pyridin-3-yl)-2,5-difluorophenyl)-2-chloro-5-ethoxybenzenesulfonamide] |
| 7.7 | 3.4 | 2.1 | Cc1ccc(F)c(S(=O)(=O)Nc2cc(F)c(-c3nn(C(C)C)c4c3c(N)ncc4[C@H]3CC[C@H](N4CCOCC4)CC3)cc2F)c1 [Compound A12, N-(4-(4-amino-1-isopropyl-7-((1r,4r)-4-morpholinocyclohexyl)-1H-pyrazolo[4,3-c]pyridin-3-yl)-2,5-difluorophenyl)-2-fluoro-5-methylbenzenesulfonamide] |
| 11.6 | 4.8 | 2.1 | CC(C)n1nc(-c2cc(F)c(NS(=O)(=O)Cc3ccccc3F)cc2F)c2c(N)ncc([C@H]3CC[C@H](N4CCOCC4)CC3)c21 [Compound A11, N-(4-(4-amino-1-isopropyl-7-((1r,4r)-4-morpholinocyclohexyl)-1H-pyrazolo[4,3-c]pyridin-3-yl)-2,5-difluorophenyl)-1-(2-fluorophenyl)methanesulfonamide] |
| 17 | 15.5 | 3.6 | COC(C)(C)CN[C@H]1CC[C@H](c2cnc(N)c3c(-c4cc(F)c(NS(=O)(=O)c5ccccc5F)cc4F)nn(C(C)C)c32)CC1 [Compound A13, N-(4-(4-amino-1-isopropyl-7-((1r,4r)-4-((2-methoxy-2-methylpropyl)amino)cyclohexyl)-1H-pyrazolo[4,3-c]pyridin-3-yl)-2,5-difluorophenyl)-2-fluorobenzenesulfonamide] |
